According to patent US6872805B2 (Bristol-Myers Squibb Company, priority 2000, dated 2005):
pIC50: −log10 of the molar value.

Tests used:
[1] = target: HCV NS3/4A protease complex (Hepatitis C virus genotype 1a, UniProt P27958, C1454S/C1711G); assay: Recombinant HCV NS3/4A protease complex FRET peptide assay (strain not stated); format: biochemical
human leukocyte elastase = target: T1, human leukocyte elastase (Homo sapiens, UniProt P08246); assay: Specificity assay, human leukocyte elastase; format: biochemical; conditions: read-out: HLE
T1 sequence (P08246 30-267): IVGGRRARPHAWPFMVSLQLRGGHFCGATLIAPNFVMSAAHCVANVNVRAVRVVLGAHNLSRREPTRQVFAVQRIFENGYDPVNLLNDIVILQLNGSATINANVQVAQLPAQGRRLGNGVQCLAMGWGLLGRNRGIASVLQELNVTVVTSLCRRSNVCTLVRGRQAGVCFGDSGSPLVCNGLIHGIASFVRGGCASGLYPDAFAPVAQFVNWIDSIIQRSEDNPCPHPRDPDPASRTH
Protocol: (§1) The specificities of compounds of the present invention were determined against a variety of serine proteases: human leukocyte elastase, porcine pancreatic elastase and bovine pancreatic α-chymotrypsin and one cysteine protease: human liver cathepsin B. In all cases a 96-well plate format protocol using calorimetric […] (pNA) substrate specific for each enzyme was used as described previously (Patent WO 00/09543) with some modifications.
(§2) Each assay included a 1 h enzyme-inhibitor pre-incubation at RT followed by addition of substrate and hydrolysis to ˜30% conversion as measured on a Spectramax Pro microplate reader. Compound concentrations varied from 100 to 0.4 μM depending on their potency.
(§3) The final conditions and protocol for each assay was as reported previously (Patent WO 00/09543) with the inclusion of an additional assay: • 50 mM Tris-HCl pH 8, 0.5M Na2SO4, 50 mM NaCl, 0.1 mM EDTA, 3% DMSO, 0.01% Tween-20 with 133 μM succ-AAA-PNA and 20 nM Elastase
(§4) The percentage of inhibition was calculated using the formula: [1−((UVinh−UVblank)/(UVctl−UVblank))]×100

[2] = target: T2, porcine pancreatic elastase (Sus scrofa, UniProt P00772); assay: Specificity assay, porcine pancreatic elastase; format: biochemical; conditions: read-out: PPE
T2 construct: from tissue; host or cells: pancreas (from the enzyme's name only)
T2 sequence (P00772 27-266): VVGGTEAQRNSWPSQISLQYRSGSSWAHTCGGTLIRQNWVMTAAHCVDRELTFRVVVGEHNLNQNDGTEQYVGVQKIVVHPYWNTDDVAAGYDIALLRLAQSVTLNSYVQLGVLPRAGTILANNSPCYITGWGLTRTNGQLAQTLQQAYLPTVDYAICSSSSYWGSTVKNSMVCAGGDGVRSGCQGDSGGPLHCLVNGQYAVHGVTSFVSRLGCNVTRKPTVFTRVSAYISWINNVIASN
Protocol: as §1, §2, §3, §4

[3] = In vivo rat PK studies (systemic and liver exposure); set-up: species or system male Sprague Dawley rats; conditions: dosed orally or intravenously
Protocol: All animal experimentation was conducted in accordance with USDA guidelines under the Animal Welfare Act. To assess the systemic and liver exposure, representative compounds were orally (gastric intubation) or intravenously (bolus or infusion) administered to male Sprague Dawley rats bearing indwelling jugular vein cannulae. At pre-determined times after dosing, serial blood samples were taken from the implanted cannulae. Plasma was separated from EDTA-treated blood by centrifugation and stored at −20° C. until analysis. The liver was removed from rats after carbon dioxide asphyxiation, rinsed with saline and blotted dry. For analysis, a 2 g portion of the outer part of one lobe was minced and homogenized with 4 ml of 80% acetonitrile/HBSS buffer. After centrifugation, the supernatant was kept at −20° C. until analysis. Quantitation of represenatative compounds in plasma and liver homogenate samples was performed by a specific LC/MS/MS method optimized for each compound.

Sequence of HCV NS3/4A protease complex (P27958 1027-1711, stated change not applied): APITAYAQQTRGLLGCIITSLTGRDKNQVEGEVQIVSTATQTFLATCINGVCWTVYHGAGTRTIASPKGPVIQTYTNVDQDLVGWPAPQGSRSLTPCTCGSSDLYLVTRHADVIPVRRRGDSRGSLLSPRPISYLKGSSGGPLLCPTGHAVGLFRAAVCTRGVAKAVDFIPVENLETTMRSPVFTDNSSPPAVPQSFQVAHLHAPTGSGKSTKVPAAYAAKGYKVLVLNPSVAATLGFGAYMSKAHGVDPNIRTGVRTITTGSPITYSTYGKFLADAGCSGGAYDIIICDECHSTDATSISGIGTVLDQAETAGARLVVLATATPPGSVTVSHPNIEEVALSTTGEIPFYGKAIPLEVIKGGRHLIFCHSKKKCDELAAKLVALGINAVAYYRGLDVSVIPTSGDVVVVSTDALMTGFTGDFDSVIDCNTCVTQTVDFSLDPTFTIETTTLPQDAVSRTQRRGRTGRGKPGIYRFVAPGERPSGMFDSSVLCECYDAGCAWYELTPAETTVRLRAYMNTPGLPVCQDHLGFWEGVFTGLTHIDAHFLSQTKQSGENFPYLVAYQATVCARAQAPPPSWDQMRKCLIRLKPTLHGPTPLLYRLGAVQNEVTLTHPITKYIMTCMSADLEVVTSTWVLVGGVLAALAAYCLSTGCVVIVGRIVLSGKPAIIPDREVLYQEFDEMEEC
Sequence of HCV NS3/4A protease complex (P27958 1027-1711, stated change not applied): as above

**Q.** What does the source list for `C=CC1C[C@]1(NC(=O)[C@@H]1C[C@@H](Oc2cc(-c3ccccc3)nc3cc(OC)ccc23)CN1C(=O)C(NC(=O)OC(C)(C)C)C(C)(C)C)C(=O)NS(=O)(=O)c1ccc(NC(C)=O)cc1` (some centres unmarked) [Compound 58]?
**A.** pIC50 ([1]; IC50, NS3/4A protease enzyme assay, strain not stated, activity ranges): > 7.30; pIC50 ([1]; IC50, strain not stated): 7.68; pIC50 (human leukocyte elastase): 4.46; pIC50 [2]: < 4.00; viral target exposure [3]: viral target exposure was achieved
